This is an account of results in patent US20100035943A1, “Oxa-and thiadiazoles and their use as metalloproteinase inhibitors” (VERNALIS (OXFORD) LTD, priority 2002, published 2010).

As a reminder, the pIC50 is the IC50 on a negative log10 scale, so that one unit is a factor of ten.

The target in one test is metalloelastase (MMP12) (Homo sapiens, UniProt P39900). Put plainly: MMP12 enzyme inhibition assay (fluorogenic peptide substrate McaPLGLDpaAR). It counts as biochemical. Conditions: protocol as for MMP9 assay.
The test system of test [1] is IL2-induced lymphocyte recruitment. Description: IL2-induced peritoneal recruitment of lymphocytes. It counts as in vivo, C3H/HEN mice. As to conditions: mice, 15 min prior to IL2, cells counted 24 hours after IL2. As to the method:
Administration of IL2 intraperitoneally causes migration of lymphocytes into the intraperitoneal cavity. This is a model for the cellular migration that occurs during inflammation.
C3H/HEN mice (Elevage Janvier, France) were intraperitoneally injected with IL2 (Serono Pharmaceutical Research Institute, 20 μg/kg, in saline). Compounds of the invention were suspended in 0.5% carboxymethylcellulose (CMC)/0.25% tween-20 and were administered by sc or po route (10 ml/kg) 15 min prior to administration of IL2.
Twenty-four hours after administration of IL2, peritoneal white blood cells were collected by 3 successive lavages of the peritoneal cavity with 5 ml phosphate buffered saline (PBS)-1 mM EDTA (+4° C.). The suspension was centrifuged (1700 g×10 min at +4° C.). The resulting pellet was suspended in 1 ml PBS-1 mM EDTA.
Lymphocytes were identified and counted using a Beckman/Coulter counter.
The animals were divided into 5 groups (6 mice each group):
Group 1: (baseline) received 0.5% CMC/0.25% tween-20 (vehicle of compound of the invention) and saline (vehicle of IL2); Group 2: (control IL2) received 0.5% CMC/0.25% tween-20 and injection of IL2; Group 3: Experimental group (Compound of the invention Dose 1) received a compound of the invention and injection of IL2; Group 4: Experimental group (Compound of the invention Dose 2) received a compound of the invention and injection of IL2; Group 5: Experimental group (Compound of the invention Dose 3) received a compound of the invention and injection of IL2; Group 6: Reference group received reference compound dexamethasone and injection of IL2
Inhibition of lymphocyte recruitment was calculated as follows:
Where Ly 1=Number of lymphocytes in group 1 (E3/μl), Ly 2=Number of lymphocytes in group 2 (E3/μl), Ly X=Number of lymphocytes in group X (3-5) (E3/μl)
The dose of compound of the invention required to inhibit lymphocyte recruitment by 50% (ID50) was calculated using a curve-fitting routine.

pIC50: −log10 of the molar value.

Chain of metalloelastase (MMP12) (P39900 106-470): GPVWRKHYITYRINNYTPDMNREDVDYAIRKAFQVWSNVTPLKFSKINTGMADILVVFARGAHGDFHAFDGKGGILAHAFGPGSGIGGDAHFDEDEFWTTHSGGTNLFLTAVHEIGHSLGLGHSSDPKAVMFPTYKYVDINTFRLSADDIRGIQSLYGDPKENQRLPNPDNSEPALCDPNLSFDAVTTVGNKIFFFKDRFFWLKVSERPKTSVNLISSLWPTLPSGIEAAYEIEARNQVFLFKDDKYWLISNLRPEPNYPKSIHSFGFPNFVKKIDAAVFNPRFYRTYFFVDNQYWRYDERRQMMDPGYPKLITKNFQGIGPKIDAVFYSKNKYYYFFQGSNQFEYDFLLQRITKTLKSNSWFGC

For the compound `CC(C)C[C@@H](C(=O)N[C@H](c1noc(-c2cccs2)n1)C(C)(C)C)[C@H](O)C(=O)NO` [Example 13, 2S-Hydroxy-3R-[1S-(5-thiophen-2-yl-[1,2,4]oxadiazol-3-yl)-2,2-dimethyl-propylcarbamoyl]-5-methyl Hexanohydroxamic Acid], the pIC50 against metalloelastase (MMP12) is over 7.00. Moreover, the “ID50 for inhibition of IL2-induced peritoneal recruitment of lymphocytes” value in test [1] (Oral route) was 1 mg/kg; in test [1] (Subcutaneous route), 0.1 mg/kg.
